Results taken from patent EP2088149A1 (priority 2006, dated 2008).

Tests used:
[1] = Acute toxicity (LD50, Litchfield and Wilcoxon), intraperitoneal, 14 days follow-up; conditions: mouse, in vivo, ip; male white outbred mice, intraperitoneally, follow-up 14 days
Protocol: Acute toxicity of the substances was determined on males of white outbred mice weighing 22 to 26 grams. The substances were administered intraperitoneally as a solution or a suspension in 1% starch solution. Follow-up period was 14 days.

AMPA receptors = assay: Patch-clamp potentiation of kainate-induced trans-membrane currents in freshly isolated cerebellar Purkinje's neurons; assay type: cell-based, rat; conditions: for Potentiation of cainate-induced currents (%) / Potentiation of cainate-induced currents (%): blockade: rat cerebellar Purkinje's neurons; for Washing returned the amplitude of responses to the control value: washing time after application of the compound; for Potentiation of cainate-induced currents (%): blockade: 10 µM, values are printed as blockade, without minus sign
Protocol: The inventors used determining the potentiating effect of novel compounds on kainate-induced trans-membrane currents in cerebellar Purkinje's neurons of rats for a directed search for compounds capable of potentiating responses of AMPA receptors (and thereby, to cause improvement of memory and cognitive functions).
Experiments on assessing the effect of substances on AMPA receptors were carried out using the patch-clamp method on freshly isolated Purkinje's neurons isolated from cerebellum of rats (aged 12 to 15 days). A modified method was used for isolation. 400 to 600 µm thick cerebellar slices were placed into a thermostatic 10 ml chamber. A solution for isolation had the following composition (in mM): NaCl 150.0, KCl 5.0; CaCl2 2.0, MgSO4×7H2O 2.0, HEPES 10.0, glucose 15.0, pH 7.42. The slices were incubated in this solution for 60 minutes, and thereafter, the solution was replaced by a similar solution comprising pronase (2 mg/ml) and collagenase (1 mg/ml) and incubated for 70 minutes. After washing with the original solution for 20 minutes, the slices were placed into a Petri plate and separated by a mechanic method using a Pasteur pipette. The solutions were continuously blown-through with 100% O2 at temperature 34°C. Purkinje's neurons were placed into a 0.6 ml working chamber. A process solution had the following composition (in mM): NaCl 150.0, KCl 5.0; CaCl2 2.6, MgSO4×7H2O 2.0, HEPES 10.0, glucose 15.0, pH 7.36.
Trans-membrane currents were induced by activation of AMPA receptors by applying agonist solutions of these receptors, i.e. cainic acid (CA) using a fast superfusion method. Cainic acid is an agonist of AMPA receptors and it is used for studying properties of AMPA receptors, since AMPA as such causes a too strong desensitization of the receptors, and it is not used in such experiments. Currents were recorded using borosilicate micro electrodes (resistance 1.5 to […]) filled with a following composition (in mM): KCl 100.0; EGTA 11.0, CaCl2 1.0, MgCl2 1.0, HEPES 10.0, ATP 5.0, pH 7.2.
The instrument EPC-9 (HEKA, Germany) was used for recoding. Currents were recorded on the PC Pentium-4 hard disc using the Pulse software, also purchased from the HEKA company. Results were processed using the Pulsefit software (HEKA).
Applying KK induced trans-membrane inward currents in Purkinje's neurons. Addition of the compounds of formula I to perfusion solution induced increase in amplitude of the currents. This increase was dependent on a compound, on concentration thereof, on time elapsed following commencement of a compound application.

[2] = 0.1 µM, negative values = blockade of the currents
[3] = 1 µM, negative values = blockade of the currents

Row | SMILES | LD50 at 14 days [1] | Potentiation of cainate-induced currents (%) (AMPA receptors; 0.0001 µM) | Potentiation of cainate-induced currents (%) (AMPA receptors; 0.001 µM) | Potentiation of cainate-induced currents (%) (AMPA receptors; 0.001 µM, listed as 1 (XXXI)) | Potentiation of cainate-induced currents (%) (AMPA receptors; 0.01 µM) | Potentiation of cainate-induced currents (%) (AMPA receptors; 0.01 µM, listed as 1 (XXXI)) | Potentiation of cainate-induced currents (%) (AMPA receptors; [2]) | Potentiation of cainate-induced currents (%) (AMPA receptors; 0.1 µM, negative values = blockade of the currents, listed as 1 (XXXI)) | Potentiation of cainate-induced currents (%) (AMPA receptors; [3]) | Potentiation of cainate-induced currents (%) (AMPA receptors; 1 µM, negative values = blockade of the currents, listed as 1 (XXXI)) | Washing returned the amplitude of responses to the control value (AMPA receptors) | Potentiation of cainate-induced currents (%) (AMPA receptors; 0.00001 µM) | Potentiation of cainate-induced currents (%) (AMPA receptors; 0.00001 µM, listed as 2 (XXX2)) | Potentiation of cainate-induced currents (%) (AMPA receptors; 0.0001 µM, listed as 2 (XXX2)) | Potentiation of cainate-induced currents (%) (AMPA receptors; 0.001 µM, listed as 2 (XXX2)) | Potentiation of cainate-induced currents (%) (AMPA receptors; 0.01 µM, listed as 2 (XXX2)) | Potentiation of cainate-induced currents (%) (AMPA receptors; 0.1 µM, negative values = blockade of the currents, listed as 2 (XXX2)) | Potentiation of cainate-induced currents (%): blockade (AMPA receptors) | Potentiation of cainate-induced currents (%) (AMPA receptors; 30 µM)
1 | CC12CN(C(=O)c3ccc4c(c3)OCCO4)CC(C)(CN(C(=O)c3ccc4c(c3)OCCO4)C1)C2=O [Compound 1, 3,7-bis(2,3-dihydro-1,4-benzodioxin-6-ylcarbonyl)-1,5-dimethyl-3,7-diazabicyclo[3.3.1]nonan-9-one] | 350 mg/kg | 0.0001 µM - no potentiation | 40 to 50% | 0.001 µM - potentiation by 40 to 50%, | 80% | 0.01 µM - potentiation by 80% | 0% | 0.1 µM - 0%, | -20 to -40% | 1 µM - blockade by -20 to -40% | 3 to 5 min |  |  |  |  |  |  |  | 
2 | CC12CN(C(=O)c3ccc4c(c3)OCO4)CC(C)(CN(C(=O)c3ccc4c(c3)OCO4)C1)C2=O [Compound 2, 3,7-bis(1,3-benzodioxol-5-ylcarbonyl)-1,5-dimethyl-3,7-diazabicyclo[3.3.1]nonan-9-one] | 140 mg/kg | 50-90% | 60-140% |  | 0-20% |  |  |  |  |  | 4 to 6 min | 10% | 0.00001 µM -potentiation by 20 to 40% | 0.0001 µM - potentiation by 50 to 90%, | 0.001 µM - potentiation by 60 to 140% | 0.01 µM - potentiation by 0 to 20%, | 0.1 µM - blockade by -20 to -40% |  | 
3 | Cc1nc2ccc(C(=O)N3CC4(C)CN(C(=O)c5ccc6nc(C)c(C)nc6c5)CC(C)(C3)C4=O)cc2nc1C [Compound 3, 3,7-bis[(2,3-dimethylquinoxalin-6-yl)carbonyl]-1,5-dimethyl-3,7-diazabicyclo[3.3.1]nonan-9-one] | 90 mg/kg | 0.0001 µM - no potentiation | 0.001 µM - potentiation by 10 to 15% |  | 0.01 µM - potentiation by 20 to 30%, |  | 0.1 µM - blockade by -20 to -50% |  | 1 µM - no potentiation |  |  |  |  |  |  |  |  | 10 µM - blockade by 20 to 50% | 
4 | COc1ccc(C(=O)N2CC3(C)CN(C(=O)c4ccc(OC)c(Cn5cccn5)c4)CC(C)(C2)C3=O)cc1Cn1cccn1 [Compound 4] | 900 mg/kg |  | 0.001 µM - no effect |  | 0.01 µM - potentiation by 10 to 30%, |  | 0.1 µM - blockade by -20 to -40% |  | 1 µM - 0% |  |  |  |  |  |  |  |  | 10 µpM - blockade by 15 to 35% | 
5 | CC12CC3CC(C)(C1)CC(N)(C3)C2 [Memantine, reference compound] | 1000 mg/kg |  |  |  |  |  |  |  |  |  |  |  |  |  |  |  |  |  | potentiation by 0 to 15% at 30 µM
